Results reported in ChEMBL document CHEMBL4673286, “Selective recognition of DNA parallel G-quadruplexes by 3,8a-disubstituted indolizinones” (Bioorg Med Chem, 2021).
Active and inactive are the calls of the source. The rule behind the calls is not given here.

Legend:
[1] = system: Quadruplex DNA; test: Binding affinity to c-myc G-quadruplex DNA (unknown origin) in PBS buffer 40 mM K+ at 5 uM by spectrofluorimetric analysis; type: nucleic-acid assay
[2] = system: Quadruplex DNA; test: Effect on c-myc G-quadruplex DNA (unknown origin) configuration in water at 5 uM spectropolarimeter; type: ADME, nucleic-acid assay; conditions: buffer
[3] = Drug localization in nucleus of human MCF7 cells at 10 uM incubated for 4 hrs in presence of urea by propidium iodide staining based by confocal microscopy; type: ADME, cell-based; conditions: mcf7, 4 h
[4] = Drug localization in nucleus of human HeLa cells at 10 uM incubated for 4 hrs in presence of urea by propidium iodide staining based by confocal microscopy; type: ADME
[5] = Drug localization in cytoplasm of human MCF7 cells at 10 uM incubated for 4 hrs by propidium iodide staining based by confocal microscopy; type: ADME, cell-based; conditions: mcf7, 4 h
[6] = Drug localization in nucleus of human MCF7 cells at 10 uM incubated for 4 hrs by propidium iodide staining based by confocal microscopy; type: ADME, cell-based; conditions: mcf7, 4 h
[7] = Drug localization in nucleus of human HeLa cells at 10 uM incubated for 4 hrs by propidium iodide staining based by confocal microscopy; type: ADME
[8] = Drug localization in cytoplasm of human HeLa cells at 10 uM incubated for 4 hrs by propidium iodide staining based by confocal microscopy; type: ADME
[9] = Drug localization in human HeLa cells at 10 uM incubated for 4 hrs by MitoTracker Deep Red and Lyso-Tracker Red DND-99 staining based by confocal microscopy; type: ADME, cell-based
[10] = system: HT-1080; test: Cytotoxicity against human HT-1080 cells assessed as reduction in cell viability at 10 uM incubated for 72 hrs by MTT assay relative to control; type: functional
[11] = system: MCF7; test: Cytotoxicity against human MCF7 cells assessed as reduction in cell viability at 10 uM incubated for 72 hrs by MTT assay relative to control; type: functional
[12] = system: HeLa; test: Cytotoxicity against human HeLa cells assessed as reduction in cell viability at 10 uM incubated for 72 hrs by MTT assay relative to control; type: functional
[13] = system: DNA; test: Binding affinity to ds26 DNA sequence (unknown origin) by spectrofluorimetric analysis; type: nucleic-acid assay
[14] = Binding affinity to dx12ab DNA sequence (unknown origin) by spectrofluorimetric analysis
[15] = Binding affinity to TBA DNA sequence (unknown origin) by spectrofluorimetric analysis
[16] = system: Quadruplex DNA; test: Effect on c-myc G-quadruplex DNA (unknown origin) configuration in PBS buffer 40 mM K+ at 5 uM by spectropolarimeter; type: ADME, nucleic-acid assay
[17] = system: Quadruplex DNA; test: Binding affinity to c-myc G-quadruplex DNA (unknown origin) in PBS buffer (40 mM K+, pH 7.4) by spectrofluorimetric analysis; type: nucleic-acid assay

| Compound | Activity [1] | Activity [2] | Drug uptake [3] | Drug uptake [4] | Drug uptake [5] | Drug uptake [6] | Drug uptake [7] | Drug uptake [8] | Drug uptake [9] | inhibition at 10 µM [10] | inhibition at 10 µM [11] | inhibition at 10 µM [12] | K [13] | K [14] | K [15] | Activity [16] | K [17] |
| --- | --- | --- | --- | --- | --- | --- | --- | --- | --- | --- | --- | --- | --- | --- | --- | --- | --- |
| O=C1C=C(c2ccc3ccccc3c2)N2C=CC=CC12c1ccccn1 (stereo not given) | Active | Not Active | Active | Active | Active | Active | Active | Active | Active | 30.4% | 24.3% | 11.1% | inactive | inactive | inactive | Not Active | – |
| O=C1C=C(c2ccccn2)N2C=CC=CC12c1ccccn1 (stereo not given) | Active | Not Active | – | – | – | – | – | – | – | 8.5% | 7.9% | 3.7% | – | – | – | Not Active | – |
| O=C1C=C(c2ccc(Cl)cc2)N2C=CC=CC12c1ccccn1 (stereo not given) | Active | Not Active | – | – | – | – | – | – | – | 15.6% | 4.7% | 16.6% | – | – | – | Not Active | – |
| O=C1C=C(c2ccc(-c3ccccc3)cc2)N2C=CC=CC12c1ccccn1 (stereo not given) | Active | Not Active | – | – | – | – | – | – | – | 32.2% | 14.3% | 5.7% | – | – | – | Not Active | – |
| COc1ccc(C2=CC(=O)C3(c4ccccn4)C=CC=CN23)cc1 (stereo not given) | Active | Not Active | – | – | – | – | – | – | – | 46.1% | 0.6% | 3.2% | – | – | – | Not Active | – |
| O=C1C=C(c2ccncc2)N2C=CC=CC12c1ccccn1 (stereo not given) | Active | Not Active | – | – | – | – | – | – | – | 1.8% | 19.3% | 5.9% | – | – | – | Not Active | – |
| O=c1[nH]cc(F)c(=O)[nH]1 [FLUOROURACIL] | – | – | – | – | – | – | – | – | – | 65.3% | 41.9% | 44% | – | – | – | – | – |
| O=C1C=C(c2cccnc2)N2C=CC=CC12c1ccccn1 (stereo not given) | Active | Not Active | – | – | – | – | – | – | – | 30.3% | 16.5% | 3% | – | – | – | Not Active | – |
| O=C1C=C(c2ccccc2)N2C=CC=CC12C(F)(F)F (stereo not given) | Active | Not Active | – | – | – | – | – | – | – | 15.9% | 18.7% | -4.7% | – | – | – | Not Active | inactive |
| O=C1C=C(c2ccc3ccccc3c2)N2C=CC=CC12C(F)(F)F (stereo not given) | Active | Not Active | – | – | – | – | – | – | – | 2.9% | -11.9% | -1.3% | – | – | – | Not Active | – |
| O=C1C=C(c2ccc([N+](=O)[O-])cc2)N2C=CC=CC12c1ccccn1 (stereo not given) | Active | Not Active | – | – | – | – | – | – | – | -4.2% | 12.5% | 2.9% | – | – | – | Not Active | inactive |
